Measured values as given in patent publication US11583570B2, “Use of autoinducer-related pathway in inducing apoptosis and anti-infective therapy” (TSINGHUA UNIVERSITY, priority 2017, dated 2023).

Assays:
[1] = test system: FADD in complex with caspase 8; assay: FADD / caspase 8 co-immunoprecipitation; type: cell-based; settings: following 3OC12 HSL treatment
Description: For FADD immunoprecipitation, 4 μg anti-mouse FADD pAb (Santa Cruz, H-181) were incubated with 100 μl protein A/G agarose for 2 hrs at RT. 3 million/ml purified CD4 T cells were stimulated with HSLs or left untreated. The cells were then collected and lysed with IP lysis buffer (50 mM HEPES pH 7.4, 150 mM NaCl, 1% NP-40, 1 mM EDTA, 1 mM PMSF, 1 mM NaF, 1 mM NaVO3 and protease inhibitor cocktails). The cell lysates were added into antibody-bead mixtures for 3 hrs at 4° C. Beads were then collected by low speed centrifugation (1000 g, 5 min) and washed 4 times with IP lysis buffer (300 mM NaCl added). After the last wash, pellets were suspended with 70 ul 2×SDS loading buffer and boiled for 5 min. For caspase 8 immunoprecipitation, 4 μg anti-Caspase 8 pAb (Santa Cruz, C-20) was incubated with 100 μl protein A/G agarose for 1 hr at RT. 3 million/ml H9 cells were treated with HSLs or left untreated. The samples were processed as in FADD IP. For cross-linking assay, CD4+ T cells isolated from C57BL/6 mice spleen or human THP-1 cells was stimulated with HSLs or left untreated, then cells were collected and cross-linked by 10 mM DTSSP at RT for 30 min and quenched with 1M Tris-HCl (pH7.5) for 15 min. […]

caspases 8 and 3 [2] = assay: Caspase 8 and 3 cleavage in CD4 T cells (Western blot), mouse; type: cell-based; settings: mouse (FIG. 2d)
ZAP70 = ZAP70 phosphorylation in live cells recovered from T cell culture; type: cell-based; settings: live cells recovered from the culture
thymoma line EL4 = assay: Annexin V/PI apoptosis detection, EL4; type: cell-based
Description: (§1) Cell apoptosis was detected with Annexin V/PI apoptosis detection Kit. Briefly, cells were stimulated with HSLs or left untreated. 6 hrs later, cells were collected and stained with Annexin VFITC and PI for 15 min at RT, then the apoptotic effect was measured by flow cytometry. OT-I or OT-II splenocytes were pulsed with specific peptides or PMA and ionomycin mixture with or without HSLs or TNF α plus cycloheximide. 24 hrs later, cells and supernatants were collected separately. For OT-I activation, cells were stained with CD69 and CD8. For OT-II activation, cells were stained with CD69 and CD4. Cell activation was measured by flow cytometry. All supernatants were detected for IL-2 secretion by ELISA.

[3] = test system: transformed DC line DC2.4; assay: Annexin V/PI apoptosis detection, DC2.4; type: cell-based
Description: as §1

RAW264.7 cells = assay: Phagocytosis assay; type: cell-based
Description: For Phagocytic assay, polystyrene beads were coated with BSA plus mouse anti-BSA Ab via commercial methods. Before experiment, RAW264.7 cells were cultured on clean glass slices in 24-hole plate with Opti-MEM. Cells were co-cultured with coated beads, centrifuged at 900 g, 4° C. for 5 min and cultured at 37° C. for 45 min. Then cells were fixed with 4% paraformaldehyde and stained with 488 nm anti-mouse fluorescent Ab for immunofluorescent imaging. For analysis, total number of beads on each cell was calculated under bright field, the number of beads which were not engulfed were calculated under fluorescent lighting.

EGFR = assay: MSFQ, EGFR dimerization; type: cell-based, human; settings: in comparison with the carrier treatment
Description: Single molecule photo-bleaching step counting: 0.5 μg TNFR1(1-293)-peGFP-N1 plasmid or 0.5 μg EGFR-peGFP-N1 plasmid was transfected into HeLa cells and cultured for 5-6 hrs. Then the cells were stimulated with HSLs, TNF α, or left untreated, and washed twice with PBS and fixed with 4% paraformaldehyde before imaging. GFP was excited at 488 nm with a laser power of 5 mW measured after the laser passing through the objective. The collected fluorescent signal was gated by a band-pass filter HQ 525/50 (Chroma Technology). The EM gain of the EMCCD camera was set at 300. Movies of 400 frames were acquired for each sample at a full-frame rate of 10 Hz. For imaging analysis, the background fluorescence was firstly subtracted from the movie acquired from the fixed cells using the rolling ball method in Image J software, and regions of interest on movies were selected manually according to the outline of cells. To analyze the bleaching steps, the fluorescence time courses of each fluorescent spots were first constructed by Image J plugin and bleaching steps were then counted manually.

Iκbα = Iκbα degradation in non-apoptotic Jurkat cells; type: cell-based
caspases 8 and 3 [4] = assay: Caspase 8 and 3 cleavage in human cells (Western blot); type: cell-based; settings: human (FIGS. 3a and b)
[5] = Atomic force microscopy of reconstituted lipid domains; type: physicochemical
Description: […] The dried lipid film was resuspended with 4 mM HEPES buffer (with 150 mM NaCl) to produce SUV. Vesicle solution (100 μl) was added to freshly cleaved mica clamped in a fluid cell on the AFM heater head. After incubation at 55° C. for 30 min and then kept at RT for another 30 min, the bilayers were rinsed extensively with HEPES buffer to remove excess vesicles.
AFM images were obtained at RT on a NanoScope V Multimode Scanning Probe Microscope (Digital Instrument, Veeco, Santa Barbara, Calif., USA) in the tapping mode using V shape Si3N4 tips (model DNL-10) with spring constants of ˜0.35 N/m and resonance frequencies between 8 and 10 kHz in aqueous solutions. All experiments were conducted in Hepes buffer using a commercially available fluid cell, sealed by an O-ring. A J scanner (125 μm×125 μm) was used with a scan rate between 0.8 and 2 Hz per line.

[6] = test system: primary T cell and T cell line; assay: T cell activation (IL-2 release, CD69 expression); type: cell-based, mouse; settings: induced by MHC class I and class II-restricted antigens or PMA plus ionophore
Description: as §1

Question: What does the source list for `CCCCCCCCCC(=O)CC(=O)N[C@H]1CCOC1=O` [3OC12 HSL, N-(3-oxo-dodecanoyl) homoserine lactone]?
Answer: FADD association with caspase 8 [1]: in complex with caspase 8; caspase 8 and 3 cleavage (caspases 8 and 3 [2]): cleaved in a dose and time-dependent manner; ZAP70 phosphorylation (ZAP70): minimally affected; sensitivity to 3OC12 HSL (thymoma line EL4): sensitive; sensitivity to 3OC12 HSL [3]: sensitive; attachment of beads to cells (RAW264.7 cells): not affected; phagocytosis of antibody-coated latex beads (RAW264.7 cells; without 3OC12 HSL 4.6): 2.6+/−0.2%; EGFR dimerization (EGFR): increased the dimerization; Iκbα degradation (Iκbα): degraded; caspase 8 and 3 cleavage (caspases 8 and 3 [4]): cleaved in a dose and time-dependent manner; appearance of ordered lipid domains ([5]; domains with cholesterol and sphingolipids): clear dissolution of the elevated plains; appearance of smaller domains unrelated to lipid rafts ([5]; mixture of DOPC and DPPG): minimally affected; T cell activation measured by IL-2 release and CD69 expression [6]: suppress
